Experimental data taken from ChEMBL document CHEMBL1201862, “PubChem BioAssay data set” (2004).
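Compound exposure: 48 hours, 5 concentrations, 96-well plates. GI50 marks 50% less growth.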 Active and inactive are the calls of the source. Cut-off read from the data, not from the text of the source: active = GI50 up to about 1.1 µM and inactive = higher.

How the values were obtained:
Experiment in all cases: NCI anticancer screen, dose series, 48 h
HOP-18 = system: HOP-18
Malme-3M = system: Malme-3M
COLO 205 = system: COLO 205
ACHN = system: ACHN
NCI-H522 = system: NCI-H522
SF-539 = system: SF-539
NCI-H23 = system: NCI-H23
CAKI-1 = system: CAKI-1
A498 = system: A498
SF-268 = system: SF-268
EKVX = system: EKVX
SNB-78 = system: SNB-78
RPMI-8226 = system: RPMI-8226
K562 = system: K562
NCI-H460 = system: NCI-H460
SK-MEL-28 = system: SK-MEL-28
RXF 393 = system: RXF 393
SR = system: SR
A549 = system: A549
LXFL 529 = system: LXFL 529
HCT-116 = system: HCT-116
UO-31 = system: UO-31
IGROV-1 = system: IGROV-1
SK-MEL-2 = system: SK-MEL-2
HOP-92 = system: HOP-92
M19-MEL = system: M19-MEL
KM12 = system: KM12
CCRF-CEM = system: CCRF-CEM
DMS-114 = system: DMS-114
U-251 = system: U-251
SNB-19 = system: SNB-19
786-0 = system: 786-0
UACC-62 = system: UACC-62
HL-60 = system: HL-60
NCI-H226 = system: NCI-H226
HCC 2998 = system: HCC 2998
SN12C = system: SN12C
OVCAR-8 = system: OVCAR-8
OVCAR-5 = system: OVCAR-5
OVCAR-3 = system: OVCAR-3
SF-295 = system: SF-295
DLD-1 = system: DLD-1
SW-620 = system: SW-620
HT-29 = system: HT-29
MOLT-4 = system: MOLT-4
SK-OV-3 = system: SK-OV-3
SK-MEL-5 = system: SK-MEL-5
TK-10 = system: TK-10
SNB-75 = system: SNB-75
UACC-257 = system: UACC-257
DMS-273 = system: DMS-273
OVCAR-4 = system: OVCAR-4
KM-20L2 = system: KM-20L2
LOX IMVI = system: LOX IMVI
HCT-15 = system: HCT-15
HOP-62 = system: HOP-62
M14 = system: M14

COc1cc(C2c3cc4c(cc3[C@@H](NCCCN3CCCC3=O)C3COC(=O)[C@H]23)OCO4)cc(OC)c1O (some centres not stated)
GI50 (HOP-18): > 17.5 µM (inactive)
GI50 (Malme-3M): 0.405 µM (active)
GI50 (COLO 205): 4.17 µM (inactive)
GI50 (ACHN): 2.92 µM (inactive)
GI50 (NCI-H522): 0.319 µM (active)
GI50 (SF-539): 0.393 µM (active)
GI50 (NCI-H23): 0.515 µM (active)

COc1ccc(C2[C@@H](Cl)C(=O)N2c2ccc(OC)cc2)cc1 (some centres not stated)
GI50 (CAKI-1): 30.4 µM (inactive)
GI50 (A498): 12.2 µM (inactive)
GI50 (SF-268): > 100 µM (inactive)
GI50 (Malme-3M): 45.9 µM (inactive)
GI50 (EKVX): > 100 µM (inactive)
GI50 (SNB-78): > 100 µM (inactive)
GI50 (RPMI-8226): 98.6 µM (inactive)
GI50 (K562): 19.5 µM (inactive)
GI50 (NCI-H460): 51.4 µM (inactive)
GI50 (SK-MEL-28): > 100 µM (inactive)
GI50 (RXF 393): 22.4 µM (inactive)
GI50 (SR): 40.5 µM (inactive)
GI50 (A549): > 100 µM (inactive)
GI50 (LXFL 529): 62.8 µM (inactive)
GI50 (HCT-116): 18.6 µM (inactive)
GI50 (UO-31): 56.8 µM (inactive)
GI50 (IGROV-1): > 100 µM (inactive)
GI50 (SK-MEL-2): 62.5 µM (inactive)
GI50 (HOP-92): 11.6 µM (inactive)
GI50 (M19-MEL): 50.5 µM (inactive)
GI50 (COLO 205): > 100 µM (inactive)
GI50 (KM12): > 100 µM (inactive)
GI50 (ACHN): 41.8 µM (inactive)
GI50 (CCRF-CEM): 39.1 µM (inactive)
GI50 (DMS-114): 53 µM (inactive)
GI50 (U-251): > 100 µM (inactive)
GI50 (SNB-19): 45.5 µM (inactive)
GI50 (NCI-H522): 36 µM (inactive)
GI50 (786-0): 36.6 µM (inactive)
GI50 (UACC-62): 33.6 µM (inactive)
GI50 (HL-60): 20.4 µM (inactive)
GI50 (NCI-H226): > 100 µM (inactive)
GI50 (HCC 2998): > 100 µM (inactive)
GI50 (SN12C): > 100 µM (inactive)
GI50 (OVCAR-8): 46.2 µM (inactive)
GI50 (OVCAR-5): > 100 µM (inactive)
GI50 (OVCAR-3): 93.1 µM (inactive)
GI50 (SF-295): 28.7 µM (inactive)
GI50 (DLD-1): 89.5 µM (inactive)
GI50 (SW-620): > 100 µM (inactive)
GI50 (SF-539): 19.8 µM (inactive)
GI50 (HT-29): > 100 µM (inactive)
GI50 (MOLT-4): 35.9 µM (inactive)
GI50 (SK-OV-3): 23.1 µM (inactive)
GI50 (SK-MEL-5): > 100 µM (inactive)
GI50 (TK-10): > 100 µM (inactive)
GI50 (SNB-75): 15.1 µM (inactive)
GI50 (UACC-257): 46 µM (inactive)
GI50 (DMS-273): 62.7 µM (inactive)
GI50 (NCI-H23): > 100 µM (inactive)

Cc1ccc2c(c1)c(=O)c1c(NCCN(C)C)ccc3nnn2c31
GI50 (CAKI-1): 2.02 µM (inactive)
GI50 (OVCAR-4): 3.6 µM (inactive)
GI50 (HOP-18): 9.93 µM (inactive)
GI50 (A498): 4.88 µM (inactive)
GI50 (KM-20L2): 3.03 µM (inactive)
GI50 (SF-268): 4.24 µM (inactive)
GI50 (Malme-3M): 3.82 µM (inactive)
GI50 (EKVX): 3.64 µM (inactive)
GI50 (SNB-78): 6.22 µM (inactive)
GI50 (RPMI-8226): 2.36 µM (inactive)
GI50 (K562): 2.91 µM (inactive)
GI50 (NCI-H460): 2.67 µM (inactive)
GI50 (SK-MEL-28): 5.42 µM (inactive)
GI50 (RXF 393): 2.88 µM (inactive)
GI50 (SR): 1.22 µM (inactive)
GI50 (A549): 2.83 µM (inactive)
GI50 (LXFL 529): 3.48 µM (inactive)
GI50 (HCT-116): 2.63 µM (inactive)
GI50 (LOX IMVI): 1.9 µM (inactive)
GI50 (UO-31): 3.56 µM (inactive)
GI50 (IGROV-1): 4.33 µM (inactive)
GI50 (SK-MEL-2): 8.04 µM (inactive)
GI50 (HOP-92): 2.36 µM (inactive)
GI50 (M19-MEL): 6.21 µM (inactive)
GI50 (COLO 205): 1.9 µM (inactive)
GI50 (KM12): 2.45 µM (inactive)
GI50 (ACHN): 3.06 µM (inactive)
GI50 (CCRF-CEM): 2.21 µM (inactive)
GI50 (DMS-114): 5.26 µM (inactive)
GI50 (U-251): 4.23 µM (inactive)
GI50 (SNB-19): 6.34 µM (inactive)
GI50 (NCI-H522): 4.81 µM (inactive)
GI50 (786-0): 3.35 µM (inactive)
GI50 (UACC-62): 6.44 µM (inactive)
GI50 (HL-60): 2.1 µM (inactive)
GI50 (NCI-H226): 3.02 µM (inactive)
GI50 (HCC 2998): 3.4 µM (inactive)
GI50 (SN12C): 3.45 µM (inactive)
GI50 (OVCAR-8): 2.98 µM (inactive)
GI50 (OVCAR-5): 2.59 µM (inactive)
GI50 (OVCAR-3): 5.55 µM (inactive)
GI50 (SF-295): 1.33 µM (inactive)
GI50 (HCT-15): 4.18 µM
GI50 (DLD-1): 2.88 µM (inactive)
GI50 (SW-620): 1.57 µM (inactive)
GI50 (SF-539): 5.26 µM (inactive)
GI50 (HT-29): 1.47 µM (inactive)
GI50 (MOLT-4): 0.605 µM (active)
GI50 (HOP-62): 3.59 µM (inactive)
GI50 (SK-OV-3): 3.56 µM (inactive)
GI50 (SK-MEL-5): 3.06 µM (inactive)
GI50 (TK-10): 3.95 µM (inactive)
GI50 (SNB-75): 4.6 µM (inactive)
GI50 (UACC-257): 3.6 µM (inactive)
GI50 (M14): 4.25 µM (inactive)
GI50 (NCI-H23): 3.6 µM (inactive)

O/N=C(\c1ccccc1)N1CCCCC1
GI50 (CAKI-1): > 100 µM (inactive)
GI50 (OVCAR-4): > 100 µM (inactive)
GI50 (HOP-18): < 0.01 µM (active)
GI50 (KM-20L2): > 100 µM (inactive)
GI50 (SF-268): > 100 µM (inactive)
GI50 (Malme-3M): 4.19 µM (inactive)
GI50 (SNB-78): > 100 µM (inactive)
GI50 (NCI-H460): > 100 µM (inactive)
GI50 (SR): > 100 µM (inactive)
GI50 (A549): > 100 µM (inactive)
GI50 (LXFL 529): > 100 µM (inactive)
GI50 (HCT-116): > 100 µM (inactive)
GI50 (LOX IMVI): > 100 µM (inactive)
GI50 (UO-31): 66.5 µM (inactive)
GI50 (SK-MEL-2): > 100 µM (inactive)
GI50 (HOP-92): > 100 µM (inactive)
GI50 (COLO 205): > 100 µM (inactive)
GI50 (KM12): > 100 µM (inactive)
GI50 (DMS-114): > 100 µM (inactive)
GI50 (U-251): > 100 µM (inactive)
GI50 (SNB-19): > 100 µM (inactive)
GI50 (NCI-H522): > 100 µM (inactive)
GI50 (786-0): > 100 µM (inactive)
GI50 (HL-60): > 100 µM (inactive)
GI50 (HCC 2998): > 100 µM (inactive)
GI50 (SN12C): > 100 µM (inactive)
GI50 (OVCAR-8): > 100 µM (inactive)
GI50 (OVCAR-5): > 100 µM (inactive)
GI50 (OVCAR-3): > 100 µM (inactive)
GI50 (SF-295): > 100 µM (inactive)
GI50 (DLD-1): > 100 µM (inactive)
GI50 (SW-620): > 100 µM (inactive)
GI50 (SF-539): > 100 µM (inactive)
GI50 (HT-29): > 100 µM (inactive)
GI50 (HOP-62): 92.3 µM (inactive)
GI50 (SNB-75): 82.8 µM (inactive)
GI50 (UACC-257): > 100 µM (inactive)
GI50 (DMS-273): > 100 µM (inactive)
GI50 (M14): > 100 µM (inactive)
GI50 (NCI-H23): > 100 µM (inactive)

CC(SC(=S)Nc1cccc(F)c1)C(=O)O (configuration not stated)
GI50 (CAKI-1): 45.8 µM (inactive)
GI50 (OVCAR-4): > 100 µM (inactive)
GI50 (A498): 26.7 µM (inactive)
GI50 (KM-20L2): 26.4 µM (inactive)
GI50 (SF-268): 13.6 µM (inactive)
GI50 (EKVX): 51.2 µM (inactive)
GI50 (SNB-78): 38.9 µM (inactive)
GI50 (RPMI-8226): 15.6 µM (inactive)
GI50 (K562): 15.6 µM (inactive)
GI50 (NCI-H460): 26.2 µM (inactive)
GI50 (SK-MEL-28): 16.1 µM (inactive)
GI50 (RXF 393): 14.2 µM (inactive)
GI50 (SR): 13.8 µM (inactive)
GI50 (A549): 31.7 µM (inactive)
GI50 (LXFL 529): 17.9 µM (inactive)
GI50 (HCT-116): 19.2 µM (inactive)
GI50 (LOX IMVI): 16.1 µM (inactive)
GI50 (UO-31): 24.9 µM (inactive)
GI50 (IGROV-1): 3.85 µM (inactive)
GI50 (SK-MEL-2): 24.1 µM (inactive)
GI50 (COLO 205): > 10 µM (inactive)
GI50 (KM12): > 10 µM (inactive)
GI50 (ACHN): 26.5 µM (inactive)
GI50 (CCRF-CEM): 21.2 µM (inactive)
GI50 (DMS-114): 15.1 µM (inactive)
GI50 (U-251): 28.9 µM (inactive)
GI50 (SNB-19): 29.4 µM (inactive)
GI50 (NCI-H522): 13.4 µM (inactive)
GI50 (786-0): 34.4 µM (inactive)
GI50 (UACC-62): 19 µM (inactive)
GI50 (HL-60): 13.3 µM (inactive)
GI50 (NCI-H226): 20.1 µM (inactive)
GI50 (HCC 2998): 30.9 µM (inactive)
GI50 (SN12C): 50.7 µM (inactive)
GI50 (OVCAR-8): 25.5 µM (inactive)
GI50 (OVCAR-5): 46.5 µM (inactive)
GI50 (OVCAR-3): 27.4 µM (inactive)
GI50 (SF-295): 23.9 µM (inactive)
GI50 (HCT-15): 26.1 µM
GI50 (SW-620): 33.3 µM (inactive)
GI50 (SF-539): 18.3 µM (inactive)
GI50 (HT-29): 30.5 µM (inactive)
GI50 (MOLT-4): 17.5 µM (inactive)
GI50 (HOP-62): 18.3 µM (inactive)
GI50 (TK-10): 29.2 µM (inactive)
GI50 (UACC-257): 16.6 µM (inactive)
GI50 (DMS-273): 11.8 µM (inactive)
GI50 (M14): 16.8 µM (inactive)
GI50 (NCI-H23): 21 µM (inactive)
